In patent publication US7139665B2, “Computational method for designing enzymes for incorporation of non natural amino acids into proteins” (California Institute of Technology, priority 2002, dated 2006):
“Also recorded” adds a separate entry of the source.

What was measured:
ePheRS* [1] = biological target: T1, ePheRS* (Escherichia coli, UniProt P08312, A294G); settings: over-expression of ePheRS*; earlier work; cited from earlier work
T1 construct: expressed in transfected cells; host or cells: E. coli AF-IQ[pQE-FS*]
T1 sequence (P08312 whole entry A294G): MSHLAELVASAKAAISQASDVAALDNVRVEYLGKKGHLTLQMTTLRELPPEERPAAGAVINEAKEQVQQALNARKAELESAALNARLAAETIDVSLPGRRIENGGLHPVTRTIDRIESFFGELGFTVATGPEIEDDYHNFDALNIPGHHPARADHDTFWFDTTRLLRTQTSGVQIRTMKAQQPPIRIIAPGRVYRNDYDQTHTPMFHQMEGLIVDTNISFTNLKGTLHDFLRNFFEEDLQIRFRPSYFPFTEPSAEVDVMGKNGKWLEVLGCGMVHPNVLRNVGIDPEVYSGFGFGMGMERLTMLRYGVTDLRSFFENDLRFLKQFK
T1 sequence (P07395 whole entry, further chain): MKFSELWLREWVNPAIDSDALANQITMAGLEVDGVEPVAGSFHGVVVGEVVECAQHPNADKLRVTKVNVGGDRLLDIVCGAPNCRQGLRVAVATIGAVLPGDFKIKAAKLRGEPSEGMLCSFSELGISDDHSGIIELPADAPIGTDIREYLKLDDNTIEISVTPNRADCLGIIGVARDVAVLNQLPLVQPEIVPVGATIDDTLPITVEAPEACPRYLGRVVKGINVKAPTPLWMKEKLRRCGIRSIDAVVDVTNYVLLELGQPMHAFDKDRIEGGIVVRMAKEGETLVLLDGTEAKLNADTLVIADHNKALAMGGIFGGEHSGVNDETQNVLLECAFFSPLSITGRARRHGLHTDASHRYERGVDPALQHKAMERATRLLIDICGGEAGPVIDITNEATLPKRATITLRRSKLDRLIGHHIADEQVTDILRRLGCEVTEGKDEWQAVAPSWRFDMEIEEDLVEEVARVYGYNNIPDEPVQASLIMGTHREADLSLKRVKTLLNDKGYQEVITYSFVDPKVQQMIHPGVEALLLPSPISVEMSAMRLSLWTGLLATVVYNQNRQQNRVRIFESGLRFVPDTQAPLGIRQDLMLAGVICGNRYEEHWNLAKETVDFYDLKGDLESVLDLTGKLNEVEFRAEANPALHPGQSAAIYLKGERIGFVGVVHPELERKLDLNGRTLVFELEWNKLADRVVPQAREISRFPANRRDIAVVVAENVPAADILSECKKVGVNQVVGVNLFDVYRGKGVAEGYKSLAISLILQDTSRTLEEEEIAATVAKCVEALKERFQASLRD

ePheRS = biological target: T2, ePheRS (Escherichia coli, UniProt P08312); test: In vivo translational activity: mDHFR expression in Phe-auxotrophic E. coli AF-IQ[pQE15] (no mutant synthetase); type: cell-based; settings: phenylalanine-free minimal media supplemented with 2 (250 mg/L), 4 hr post-induction, versus background (-phe)
T2 construct: endogenous in cells; host or cells: E. coli AF-IQ[pQE15]; (Phe-auxotrophic BL21(DE3) derivative)
T2 sequence (P07395 whole entry): as the sequence (P07395 whole entry, further chain) above
T2 sequence (P08312 whole entry): as the sequence (P08312 whole entry A294G) above, with G294A counted along it
Experimental: (§1) AF-IQ, a phenylalanine auxotrophic E. coli strain carrying the repressor plasmid pLysS-IQ,^4 was transformed with pQE15, pQE-FS*, or pQE-FS** to generate expression systems AF-IQ[pQE15], AF-IQ[pQE-FS*], and AF-IQ[pQE-FS**], respectively. The capacity of 2 to support protein synthesis in each expression system was determined by induction of mDHFR expression in phenylalanine-free minimal media supplemented with 2.
(§2) The AF strain was transformed with repressor plasmid pLysS-IQ and with pQE15, pQE-FS* or pQE-FS** to generate expression strains AF-IQ[pQE15], AF-IQ[pQE-FS*] or AF-IQ[pQE-FS**], respectively.
Small scale (10 ml) cultures were used to investigate the in vivo translational activity of 2 (p-AcetylPhe). M9 minimal medium (50 ml) supplemented with 0.2% glucose, 1 mg/L thiamine, 1 mM MgSO4, 1 mM CaCl2, 19 amino acids (at 20 mg/L), antibiotics (ampicillin 200 mg/L, chloramphenicol 35 mg/L) and phenylalanine (at 20 mg/L) was inoculated with 1 ml of an overnight culture of the expression strain. When the optical density at 600 nm reached 0.8–1.0, a medium shift was performed. […] Cells were cultured for 4 hours post-induction and protein expression was monitored by SDS polyacrylamide gel electrophoresis (PAGE, 12%), using a normalized OD600 of 0.2 per sample.

ePheRS* [2] = biological target: T1, ePheRS*; test: In vivo translational activity: mDHFR expression in E. coli AF-IQ[pQE-FS*] over-expressing ePheRS* (Ala294Gly); type: cell-based; settings: ePheRS* over-expressed, Phe-depleted media supplemented with 2 (250 mg/L), versus background (-phe)
Experimental: as §1
A phenylalanine auxotrophic derivative of E. coli strain BL21(DE3), designed AF (HsdS gal (χcIts857 ind I Dam5 lacUV5-T7 gene 1) pheA) and constructed in our laboratory, was used as the expression host. The AF strain was transformed with repressor plasmid pLysS-IQ and with pQE15, pQE-FS* or pQE-FS** to generate expression strains AF-IQ[pQE15], AF-IQ[pQE-FS*] or AF-IQ[pQE-FS**], respectively.
Small scale (10 ml) cultures were used to investigate the in vivo translational activity of 2 (p-AcetylPhe). M9 minimal medium (50 ml) supplemented with 0.2% glucose, 1 mg/L thiamine, 1 mM MgSO4, 1 mM CaCl2, 19 amino acids (at 20 mg/L), antibiotics (ampicillin 200 mg/L, chloramphenicol 35 mg/L) and phenylalanine (at 20 mg/L) was inoculated with 1 ml of an overnight culture of the expression strain. […] Cells were cultured for 4 hours post-induction and protein expression was monitored by SDS polyacrylamide gel electrophoresis (PAGE, 12%), using a normalized OD600 of 0.2 per sample.

ePheRS** = biological target: T3, ePheRS** (Escherichia coli, UniProt P08312, A294G/T251G); type: cell-based
T3 construct: expressed in transfected cells; host or cells: E. coli AF-IQ[pQE-FS**]
T3 sequence (P08312 whole entry T251G/A294G): as the sequence (P08312 whole entry A294G) above, with T251G counted along it
T3 sequence (P07395 whole entry, further chain): as the sequence (P07395 whole entry, further chain) above
Experimental: The capacity of 2 to support protein synthesis in each expression system was determined by induction of mDHFR expression in phenylalanine-free minimal media supplemented with 2.
as §2
Small scale (10 ml) cultures were used to investigate the in vivo translational activity of 2 (p-AcetylPhe). M9 minimal medium (50 ml) supplemented with 0.2% glucose, 1 mg/L thiamine, 1 mM MgSO4, 1 mM CaCl2, 19 amino acids (at 20 mg/L), antibiotics (ampicillin 200 mg/L, chloramphenicol 35 mg/L) and phenylalanine (at 20 mg/L) was inoculated with 1 ml of an overnight culture of the expression strain. When the optical density at 600 nm reached 0.8–1.0, a medium shift was performed. Cells were sedimented by centrifugation for 15 min at 3,100 g at 4° C., the supernatant was removed and the cell pellets were washed twice with 0.9% NaCl. Cells were resuspended in supplemented M9 medium containing either: (a) 250 mg/L of p-AcetylPhe 2, (b) 20 mg/L phe (1) (positive control), or (c) no phe or analog (negative control). Protein expression was induced 10 min after the medium shift by addition of isopropyl-β-D-thiogalactoside (IPTG) to a final concentration of 1 mM. Cells were cultured for 4 hours post-induction and protein expression was monitored by SDS polyacrylamide gel electrophoresis (PAGE, 12%), using a normalized OD600 of 0.2 per sample.

Structure (SMILES): N#Cc1ccc(C[C@H](N)C(=O)O)cc1 [p-cyanophenylalanine]
- incorporation into recombinant proteins in E. coli hosts (ePheRS* [1]): efficient incorporation

Structure (SMILES): N[C@@H](Cc1ccc(Br)cc1)C(=O)O [p-bromophenylalanine]
- incorporation into recombinant proteins in E. coli hosts (ePheRS* [1]): efficient incorporation

Structure (SMILES): C#Cc1ccc(C[C@H](N)C(=O)O)cc1 [p-ethynylphenylalanine]
- incorporation into recombinant proteins in E. coli hosts (ePheRS* [1]): efficient incorporation

Structure (SMILES): N[C@@H](Cc1ccc(I)cc1)C(=O)O [p-iodophenylalanine]
- incorporation into recombinant proteins in E. coli hosts (ePheRS* [1]): efficient incorporation

Structure (SMILES): CC(=O)c1ccc(C[C@H](N)C(=O)O)cc1 [compound 2, p-acetylphenylalanine]
- protein (mDHFR) expression, SDS-PAGE of whole cell lysates (ePheRS): neither AF-IQ[pQE15] nor AF-IQ[pQE-FS*] exhibits protein expression above background
- protein (mDHFR) expression, SDS-PAGE of whole cell lysates (ePheRS* [2]): did not produce substantial yields of protein; also recorded: neither AF-IQ[pQE15] nor AF-IQ[pQE-FS*] exhibits protein expression above background
- protein (mDHFR) expression, SDS-PAGE of whole cell lysates (ePheRS**; AF-IQ[pQE-FS**], phenylalanine-free minimal media supplemented with 2 (250 mg/L)): high levels of mDHFR expression
- replacement of 1 by 2 in mDHFR (ePheRS**; from MALDI-TOF mass increase of mDHFR-2, mDHFR contains 9 Phe residues): approximately 80%
- misincorporation of canonical amino acids (ePheRS**; media supplemented with 2): no detectable misincorporation

Structure (SMILES): [N-]=[N+]=Nc1ccc(C[C@H](N)C(=O)O)cc1 [p-azidophenylalanine]
- incorporation into recombinant proteins in E. coli hosts (ePheRS* [1]): efficient incorporation

Structure (SMILES): N[C@@H](Cc1ccc(O)cc1)C(=O)O [tyrosine]
- misincorporation into protein (ePheRS**; under any conditions): not observed misincorporation

Structure (SMILES): N[C@@H](Cc1c[nH]c2ccccc12)C(=O)O [tryptophan]
- misincorporation into protein by ePheRS** (ePheRS**; phe starvation conditions in the absence of 2): misincorporation
